Measurements reported in US8784893B2, “Polymer formulations for delivery of bioactive agents” (Carbylan Therapeutics, Inc., priority 2007, dated 2014).

Assay: In vitro release of solid steroid from Carb-S/PEG-DA crosslinked (CARBYLAN-SX) gels into PBS
Assay type: physicochemical
Conditions: solid drug in gel, 37° C., after 72 hours of incubation
Method: A 1.75% (w/v) solution of the Carb-S (Example 2) was prepared using deionized water and the pH was adjusted to 7.4. […] A 4% (w/v) polyethylene glycol diacrylate (PEG-DA) [Mw=3400] solution was prepared using deionized water and the pH was adjusted to 7.4. […] After vortexing the mixture, 0.2 mL of the mixture was added to a 15 mL plastic centrifuge tube. […] The samples were kept at 37° C. by placing the shaker in an incubation oven that was set at 37° C. At specific intervals (24 hrs), the PBS buffer supernatant was removed from the tube and the steroid concentration in the PBS buffer was determined using UV absorption spectroscopy. […] 10 mL fresh PBS buffer was added to each tube and the tubes were returned to the shaker. This gelation and release testing was repeated in a similar manner using solid beclamethasone dipropionate (10 mg). […] Controlled Release, 1 (2000)).

Drug detected (released) from the CARBYLAN-SX polymer matrix: less than 5%
Compound: CCC(=O)OCC(=O)[C@@]1(OC(=O)CC)[C@@H](C)C[C@H]2[C@@H]3CCC4=CC(=O)C=C[C@]4(C)[C@@]3(Cl)[C@@H](O)C[C@@]21C [beclomethasone diproprionate]
